# In ChEMBL document CHEMBL2176884, “ATP-binding site of bacterial enzymes as a target for antibacterial drug design” (J Med Chem, 2011):
# Key:
# [1] = Inhibition of bacteria biotin carboxylase
# [2] = Inhibition of Staphylococcus sp. APH(3')-3a
# Pantothenate synthetase [3] = target: T1, Pantothenate synthetase (Mycobacterium tuberculosis, UniProt P9WIL5); assay: Inhibition of Mycobacterium tuberculosis Pantothenate synthetase
# T1 sequence (P9WIL5 whole entry): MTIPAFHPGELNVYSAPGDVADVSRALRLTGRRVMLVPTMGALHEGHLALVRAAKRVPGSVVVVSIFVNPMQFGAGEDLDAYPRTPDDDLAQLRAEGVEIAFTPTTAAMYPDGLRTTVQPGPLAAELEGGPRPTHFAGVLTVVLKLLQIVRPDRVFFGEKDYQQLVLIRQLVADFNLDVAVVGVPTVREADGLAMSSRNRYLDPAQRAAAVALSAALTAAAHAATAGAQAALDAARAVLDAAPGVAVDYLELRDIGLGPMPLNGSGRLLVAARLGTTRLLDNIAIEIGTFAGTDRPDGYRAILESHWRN
# Enterococcus sp. = assay: Antimicrobial activity against Enterococcus; assay type: functional
# Staphylococcus sp. = assay: Antimicrobial activity against Staphylococcus; assay type: functional
# [4] = Inhibition of DNA gyrase
# [5] = Inhibition of EnvZ by strand-transfer assay
# [6] = Inhibition of Escherichia coli His6-tagged ParC/ParE expressed in baculovirus-infected Sf9 cells by gel electrophoresis
# Haemophilus influenzae = assay: Antimicrobial activity against Haemophilus influenzae after broth microdilution method; assay type: functional
# [7] = Inhibition of Escherichia coli ACCase
# Pantothenate synthetase [8] = target: T1, Pantothenate synthetase; assay: Binding affinity to Mycobacterium tuberculosis Pantothenate synthetase
# [9] = Inhibition of Saccharomyces cerevisiae Hsp90
# [10] = target: T2, Virulence sensor histidine kinase PhoQ (Salmonella typhimurium (strain LT2 / SGSC1412 / ATCC 700720), UniProt P0DM80); assay: Inhibition of Salmonella typhimurium sensor kinase PhoQ; design: species or system Salmonella enterica subsp. enterica serovar Typhimurium
# T2 sequence (P0DM80 whole entry): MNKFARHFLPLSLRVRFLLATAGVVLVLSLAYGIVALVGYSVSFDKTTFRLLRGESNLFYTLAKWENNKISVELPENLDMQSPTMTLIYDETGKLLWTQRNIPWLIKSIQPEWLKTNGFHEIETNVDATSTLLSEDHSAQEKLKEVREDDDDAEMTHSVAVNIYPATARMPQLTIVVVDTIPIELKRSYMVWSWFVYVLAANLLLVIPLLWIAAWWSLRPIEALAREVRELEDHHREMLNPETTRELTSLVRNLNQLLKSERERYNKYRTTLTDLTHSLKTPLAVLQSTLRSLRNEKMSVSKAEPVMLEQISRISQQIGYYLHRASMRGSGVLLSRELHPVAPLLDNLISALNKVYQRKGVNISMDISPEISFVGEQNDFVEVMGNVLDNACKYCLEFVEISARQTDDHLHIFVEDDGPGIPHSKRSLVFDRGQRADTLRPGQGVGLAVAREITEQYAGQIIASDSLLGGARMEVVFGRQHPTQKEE
# [11] = Inhibition of Saccharomyces cerevisiae sensor kinase Sln1
smiles,measurement,setting,value
Cc1ccccc1CN(Cc1ccc2c(c1)OCCO2)C(=O)c1cnc(N)o1,IC50,[1],7 nM
NCCNS(=O)(=O)c1ccc(Cl)c2ccncc12,Ki,[2],49000 nM
CC(C)(C)C(O)C(=O)NS(=O)(=O)OC[C@H]1O[C@@H](n2cnc3c(N)ncnc32)[C@H](O)[C@@H]1O (stereo partly specified),Ki,Pantothenate synthetase [3],300 nM
COC(=O)C1CCCC(NCc2n[nH]c3cccc(OCc4cc(Cl)cc(Cl)c4)c23)C1 (stereo unspecified),MIC,Enterococcus sp.,4 µg/mL
same,MIC,Staphylococcus sp.,4 µg/mL
same,IC50,[4],0.25 µg/mL
C[C@H]1CNCCN1S(=O)(=O)c1cccc2cnccc12,Ki,[2],49000 nM
CC(C)(C)[C@@H](N)C(=O)NS(=O)(=O)OC[C@H]1O[C@@H](n2cnc3c(N)ncnc32)[C@H](O)[C@@H]1O,Ki,Pantothenate synthetase [3],300 nM
CO[C@@H]1[C@@H](OC(N)=O)[C@@H](O)[C@H](Oc2ccc3c(O)c(NC(=O)c4ccc(O)c(CC=C(C)C)c4)c(=O)oc3c2C)OC1(C)C [NOVOBIOCIN],Kd,[5],120000 nM
same,IC50,[6],210 nM
COc1cccc(OC)c1-c1cc2cnc(N)nc2nc1N,MIC,Haemophilus influenzae,0.125 µg/mL
same,IC50,[7],28 nM
COCCC(O)C(=O)NS(=O)(=O)OC[C@H]1O[C@@H](n2cnc3c(N)ncnc32)[C@H](O)[C@@H]1O (stereo partly specified),Ki,Pantothenate synthetase [3],300 nM
Nc1ncc2cc(-c3c(Br)cccc3Br)c(N)nc2n1,MIC,Haemophilus influenzae,0.125 µg/mL
same,IC50,[7],< 5 nM
COc1ccc2c(c1)cc(C)n2CC(=O)O,Kd,Pantothenate synthetase [8],800000 nM
COc1ccc2c(c1)cc(CNC(=O)c1cc3ccccc3o1)n2CC(=O)O,Kd,Pantothenate synthetase [8],860 nM
NCCNS(=O)(=O)c1cccc2cnccc12,Ki,[2],49000 nM
N=C(N)NCCNS(=O)(=O)c1cccc2cnccc12,Ki,[2],49000 nM
COCC(C)(C)C(O)C(=O)NS(=O)(=O)OC[C@H]1O[C@@H](n2cnc3c(N)ncnc32)[C@H](O)[C@@H]1O (stereo partly specified),Ki,Pantothenate synthetase [3],300 nM
CC(C)(C)C(=O)C(=O)NS(=O)(=O)OC[C@H]1O[C@@H](n2cnc3c(N)ncnc32)[C@H](O)[C@@H]1O,Ki,Pantothenate synthetase [3],300 nM
Cc1cc(=O)oc2cc(SCc3n[nH]c4cccc(OCc5ccc(C(C)(C)C)cc5)c34)ccc12,MNEC,[4],0.03 µg/mL
O=S(=O)(c1ccc(Cl)c2ccncc12)N1CCNCC1,Ki,[2],49000 nM
C[C@@H]1C[C@H]2O[C@@H]2/C=C\C=C\C(=O)Cc2c(Cl)c(O)cc(O)c2C(=O)O1 [RADICICOL],Kd,[9],19 nM
same,Kd,[10],715000 nM
same,IC50,[11],127000 nM
